# From patent US11844768B2, “Terameprocol and nordihydroguaiaretic acid (NDGA) derivatives as coronavirus anti-viral agents” (Erimos Pharmaceuticals, LLC, priority 2021, dated 2023)
# Where a name gives a salt, the structure may show the parent alone. Read-outs that look alike come from different tables or passages of the source.
# Key:
# SARS-CoV-2 [1] = format: cell-based; details: 48 hours, Calu-3, FIG. 6
# [2] = tested on: SARS-CoV-2-infected Vero E6 cells; experiment: Cell cytotoxicity (cell lysis / plaques, monoclonal antibody) of SARS-CoV-2-infected Vero E6 cells; format: cell-based, African green monkey; details: 48 hours; for cell cytotoxicity (cell lysis): FIG. 5
# Procedure: With reference to FIG. 5 (Example 3), Vero E6 were infected with SARS-CoV-2 virus, treated with 0.2 μM, 1.0 μM, 5.0 μM, 20 μM, and 80 μM of TMP, and tested for cell cytotoxicity using monoclonal antibodies after 48 hours. Infected Vero E6 cells without treatment were used as a negative control and infected Vero E6 cells treated with CM were used as a positive control. Here, the cells were tested for cytotoxicity via the formation of plaques identified with a monoclonal antibody.
# (§1) Vero E6 African green monkey kidney epithelial cells were cultured as host cells for the SARS-CoV-2 coronavirus in 96-well cell culture plates. 500-1500 units of SARS-CoV-2 virus in Eagle's minimal essential medium (EMEM) with 10% Fetal Bovine Serum (FBS), L-glutamine, and Na-pyruvate phosphate buffered saline was introduced to the Vero E6 cell culture wells as described in Ogando et al., Journal of General Virology (2020) (available at biorxiv.org/content/10.1101/2020.04.20.049924v1). […] Plaques were identified using a plaque assay with the mouse monoclonal antibody J2 (Ogando et al., supra). Viral RNA was also isolated from the media supernatant and virus copy number was determined by RT-PCR for estimation of virus copy number following treatment.
# Stock solutions of TMP were prepared by dissolving TMP in 100% DMSO at 50 mM with warming at 70° C. for 3 hours. TMP was added to the SARS-CoV-2-infected Vero E6 cells in the following concentrations: 0.2 μM, 1 μM, 5 μM, 20 μM, and 80 μM. Untreated infected Vero E6 cells and infected Vero E6 treated with CM were used as negative and positive controls, respectively. 48 hours following treatment with TMP, 400 μL of supernatant was collected from each plate well and viral RNA (no cellular RNA was collected) and virus copy number were measured from the extracted DNA by the ORIG3N RT-PCR test for the 1 μM, 5 μM, and 20 μM TMP-treatment wells as well as for the negative and positive controls. Separately, cell lysis was measured for all five TMP-treatment wells as well as for the negative and positive controls. The assay was repeated two additional times. FIGS. 4A-4C show the mean±SD of the number of copies of SARS-CoV-2 RNA measured from the cell supernatant for the three assay runs of the Vero E6 cells.
# [3] = tested on: NL63-infected LLC-MK2 cells; experiment: LDH release cytotoxicity assay on NL63-infected LLC-MK2 cells; format: cell-based, rhesus monkey; details: five days
# Procedure: With reference to FIG. 2 (Example 2), the exposure time of TMP on NL63-infected LLC-MK2 cells was measured to determine if long-term exposure to TMP could result in cell cytotoxicity. Cytotoxicity to the host cells can be caused by viral infection, which causes cell lysis, or by toxicity of test compounds to host cells. Cytotoxicity is measured by the release of lactate dehydrogenase (LDH), a cellular housekeeping enzyme, and its conversion of a colored substrate in the final reaction. Cells that die or lyse release LDH into the extracellular milieu; thus, the more LDH that is released by dying cells, the higher the LDH reading.
# LLC-MK2 cells were inoculated with NL63 as provided in Example 1. The cells were tested for cytotoxicity through the release of lactate dehydrogenase (LDH), the latter of which was measured and quantified with an LDH assay multiplate reader. The cytotoxicity assay was performed three times and values for each treatment group and controls were averaged across assays, as show in FIGS. 2 and 3.
# [4] = tested on: SARS-CoV-2-infected Calu-3 cells; experiment: Cell cytotoxicity (plaques, monoclonal antibody) of SARS-CoV-2-infected Calu-3 cells; format: cell-based, human; details: 48 hours, Calu-3, FIG. 6
# Procedure: With reference to FIG. 6 (Example 4), the TMP-treatment protocol for the Vero E6 cells was repeated with Calu-3 cells (human non-small-cell lung cancer cells) infected with SARS-CoV-2. Infected Calu-3 cells without treatment were used as a negative control and infected Calu-3 cells treated with CM were used as a positive control. A monoclonal antibody was used to identify cell cytotoxicity.
# as §1, with “Calu-3 human non-small-cell lung cancer” for “Vero E6 African green monkey kidney epithelial”, “supra.” for “Journal of General Virology (2020) (available at biorxiv.org/content/10.1101/2020.04.20.049924v1).”
# Stock solutions of TMP were prepared by dissolving TMP in 100% DMSO at 50 mM with warming at 70° C. for 3 hours. TMP was added to the SARS-CoV-2-infected Vero E6 cells in the following concentrations: 5 μM, 20 μM, and 40 μM. Untreated infected Vero E6 cells and infected Vero E6 treated with CM were used as negative and positive controls, respectively. 48 hours following treatment with TMP, 400 μL of supernatant was collected from each plate well and viral RNA (no cellular RNA was collected) and virus copy number were measured determined from the extracted DNA by the ORIG3N RT-PCR test. The assay was repeated two additional times.
# HCoV-NL63 = details: 48 hours; for cell toxicity resulting from the TMP treatment: LLC-MK2 cells
# SARS-CoV-2 [5] = format: cell-based
smiles,measurement,setting,value
"CN(C)C(=O)COC(=O)Cc1ccc(OC(=O)c2ccc(NC(=N)N)cc2)cc1 [CM, camostat mesylate, reference compound]",viral replication,SARS-CoV-2 [1]; CM control,almost zero viral replication
same,cell cytotoxicity (cell lysis),[2]; CM positive control,no appreciable cytotoxic effects
same,cell toxicity (LDH release),"[3]; CM positive control, FIG. 2",no cell toxicity
"COc1ccc(C[C@@H](C)[C@@H](C)Cc2ccc(OC)c(OC)c2)cc1OC [TMP, Tetra-O-methyl NDGA]",cell cytotoxicity,[4]; 5 μM TMP,non-detectable cytotoxicity
same,cell cytotoxicity,[4]; 20 μM TMP,non-detectable cytotoxicity
same,cell cytotoxicity,[4]; 40 μM TMP,only slightly increased cytotoxicity
same,viral activity,"HCoV-NL63; 0.2 μM TMP, FIG. 1",partial reduction in viral activity
same,viral RNA copy number (mean+standard deviation),"HCoV-NL63; 0.2 μM TMP, NL63-infected LLC-MK2 cells, FIG. 1, P=0.004 versus negative control","50,882+2,296 copies"
same,viral activity,"HCoV-NL63; 1 μM TMP, FIG. 1",almost no viral activity
same,cell toxicity resulting from the TMP treatment,HCoV-NL63; 1 μM TMP,no discernable cell toxicity
same,viral activity,"HCoV-NL63; 5 μM TMP, FIG. 1",almost no viral activity
same,cell toxicity resulting from the TMP treatment,HCoV-NL63; 5 μM TMP,no discernable cell toxicity
same,dose response of viral RNA,"HCoV-NL63; 0.2, 1 and 5 μM TMP, FIG. 1",linear response that plateaued at 1 μM TMP
same,reduction in the mean number of copies of SARS-CoV-2 compared to the negative control,SARS-CoV-2 [1]; 5 μM TMP,25%
same,viral replication,SARS-CoV-2 [1]; 20 μM TMP,almost zero viral replication
same,viral replication,SARS-CoV-2 [1]; 40 μM TMP,almost zero viral replication
same,cell cytotoxicity (cell lysis),[2]; 0.2 μM TMP,no appreciable cytotoxic effects
same,cell cytotoxicity (cell lysis),[2]; 1.0 μM TMP,no appreciable cytotoxic effects
same,cell cytotoxicity (cell lysis),[2]; 5 μM TMP,no appreciable cytotoxic effects
same,cell cytotoxicity (cell lysis),[2]; 20 μM TMP,reduced in comparison to the 80 μM treatment
same,cell toxicity resulting from the TMP treatment,"[2]; 20 μM TMP, FIGS. 4B and 4C runs",no discernable cell toxicity
same,cell cytotoxicity (cell lysis),[2]; 80 μM TMP,high percentage of cell lysis
same,viral activity,"SARS-CoV-2 [5]; 1 μM TMP, 48 hours, FIGS. 4B and 4C",increase in viral activity
same,viral replication,"SARS-CoV-2 [5]; 5 μM TMP, 48 hours, FIGS. 4B and 4C",zero viral replication
same,viral replication,"SARS-CoV-2 [5]; 20 μM TMP, 48 hours, FIG. 4A",almost zero viral replication
same,viral replication,"SARS-CoV-2 [5]; 20 μM TMP, 48 hours, FIGS. 4B and 4C",reduction in viral replication comparable to the CM-treated positive control
same,dose response of viral replication,"SARS-CoV-2 [5]; FIG. 4A, 48 hours, Vero E6",linear dose response
same,optimal TMP treatment range,"SARS-CoV-2 [5]; SARS-CoV-2-infected Vero E6 in vitro, FIGS. 4A-4C",5 µM
same,cell lysis (LDH release),"[3]; 0.2 μM TMP, FIG. 3",1-2%
same,cell lysis (LDH release),"[3]; 5 μM TMP, FIG. 2",10%
same,cell lysis (LDH release),"[3]; 5 μM TMP, FIG. 3",~20%
same,cell lysis (LDH release),"[3]; 20 μM TMP, FIG. 2",20-30%
same,"cell lysis (LDH release), observation","[3]; 80 μM TMP, FIG. 2",cells separating from the plate
same,cell lysis (LDH release),"[3]; increased TMP concentration (between 0.2 and 5 μM; FIG. 3 series 0.2, 1, 5 μM)",approximately 8%
